Results from the supplement of paper PMC11061612.

Experiments:
Experiment in all cases: combination Emax (second highest fraction inhibited in the dose matrix, 72 h); higher = more inhibition; extreme values may be limits of the assay
SK-N-DZ (Neuroblastoma) = system: SK-N-DZ (Neuroblastoma)
Summary of the method: (§1)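 After 24 hours at 37°C and 5% CO2 in 1536-well plates, cells in DMEM/F12 or RPMI plus 10% FBS received two-drug dose matrices for 72 hours. Viability came from CellTiter-Glo 2.0 luminescence and was scaled as inhibition, anchored at 0 by vehicle wells and at 1 by blank wells. Combination Emax is taken as the second-highest inhibition in the matrix, and Bliss excess as the observed combination effect less EA + EB − EA·EB, with EA and EB the single-agent effects.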

[1] = system: TOV-21G (Ovarian Carcinoma)
Summary of the method: as §1

[2] = system: Daudi (Burkitt's Lymphoma)
Summary of the method: as §1

[3] = system: NCI-H2023 (Non-Small Cell Lung Carcinoma)
Summary of the method: as §1

SK-MEL-24 (Melanoma) = system: SK-MEL-24 (Melanoma)
Summary of the method: as §1

NCI-H2452 (Mesothelioma) = system: NCI-H2452 (Mesothelioma)
Summary of the method: as §1

[4] = system: L-363 (Plasma Cell Myeloma)
Summary of the method: as §1

[5] = system: TK (B-Cell Non-Hodgkin's Lymphoma)
Summary of the method: as §1

[6] = system: NCI-H1944 (Lung Adenocarcinoma)
Summary of the method: as §1

[7] = system: JJN-3 (Plasma Cell Myeloma)
Summary of the method: as §1

[8] = system: KNS-62 (Squamous Cell Lung Carcinoma)
Summary of the method: as §1

[9] = system: NTERA-2-cl-D1 (Other Solid Carcinomas)
Summary of the method: as §1

[10] = system: CAL-85-1 (Breast Carcinoma)
Summary of the method: as §1

[11] = system: NCI-H835 (Other Solid Carcinomas)
Summary of the method: as §1

[12] = system: IGROV-1 (Ovarian Carcinoma)
Summary of the method: as §1

[13] = system: SCC90 (Head and Neck Carcinoma)
Summary of the method: as §1

[14] = system: RS4-11 (B-Lymphoblastic Leukemia)
Summary of the method: as §1

DK-MG (Glioblastoma) = system: DK-MG (Glioblastoma)
Summary of the method: as §1

[15] = system: OVKATE (Ovarian Carcinoma)
Summary of the method: as §1

[16] = system: JURL-MK1 (Chronic Myelogenous Leukemia)
Summary of the method: as §1

| Structure (SMILES) | combination Emax (SK-N-DZ (Neuroblastoma)) | combination Emax [1] | combination Emax [2] | combination Emax [3] | combination Emax (SK-MEL-24 (Melanoma)) | combination Emax (NCI-H2452 (Mesothelioma)) | combination Emax [4] | combination Emax [5] | combination Emax [6] | combination Emax [7] | combination Emax [8] | combination Emax [9] | combination Emax [10] | combination Emax [11] | combination Emax [12] | combination Emax [13] | combination Emax [14] | combination Emax (DK-MG (Glioblastoma)) | combination Emax [15] | combination Emax [16] |
| --- | --- | --- | --- | --- | --- | --- | --- | --- | --- | --- | --- | --- | --- | --- | --- | --- | --- | --- | --- | --- |
| NC1(C(=O)N[C@@H](CCO)c2ccc(Cl)cc2)CCN(c2ncnc3[nH]ccc23)CC1 [Capivasertib] + COc1nnc2ccc(N3CCC(c4ccc(OCCN5CCN(C)C(=O)[C@H]5C)cc4)CC3)nn12 [AZD5153] (first compound max 10 µM, 7x7, partner max 1 µM) | 0.646 | 0.892 | 0.793 | 0.362 | 0.885 | 0.456 | 0.879 | 0.387 | 0.842 | 0.921 | 0.809 | 0.564 | 0.434 | 0.944 | 0.804 | 0.986 | 0.867 | 0.611 | 0.284 | 0.993 |
| COc1cccc(OCCCN)c1-c1cc(Nc2cnc(C#N)cn2)n[nH]1 [Prexasertib] + C[C@@H]1COCCN1C2=NC(=NC(=C2)C3(CC3)[S@](=N)(=O)C)C4=C5C=CNC5=NC=C4 [AZD6738] (first compound max 1 µM, 7x7, partner max 10 µM) | 1 | 0.591 | 0.939 | 0.81 | 0.646 | 0.672 | 1 | 0.901 | 0.789 | 0.971 | 0.555 | 0.596 | 0.477 | 0.372 | 0.754 | 0.679 | 1 | 0.216 | 0.337 | 1 |
| COc1cccc2c1C(=O)c1c(O)c3c(c(O)c1C2=O)C[C@@](O)(C(=O)CO)C[C@@H]3O[C@H]1C[C@H](N)[C@H](O)[C@H](C)O1 [Doxorubicin] + Cc1cc2ncnn2cc1Nc1ncc2c(n1)n(C1CCOCC1)c(=O)n2C [AZD7648] (first compound max 1 µM, 7x7, partner max 10 µM) | 0.613 | 0.561 | 0.956 | 0.825 | 0.725 | 0.462 | 0.925 | 0.73 | 0.625 | 0.735 | 0.484 | 1 | 0.634 | 0.516 | 0.611 | 0.603 | 0.977 | 0.469 | 0.282 | 1 |
| NC1(C(=O)N[C@@H](CCO)c2ccc(Cl)cc2)CCN(c2ncnc3[nH]ccc23)CC1 [Capivasertib] + CC(C)n1c(=O)n(C)c2cnc3cc(F)c(-c4ccc(OCCCN5CCCCC5)nc4)cc3c21 [AZD1390] (first compound max 10 µM, 7x7, partner max 0.3 µM) | 0.218 | 0.723 | 0.338 | 0.409 | 0.541 | 0.399 | 0.465 | 0.162 | 0.429 | 0.28 | 0.547 | 0.312 | 0.266 | 0.403 | 0.799 | 0.825 | 0.32 | 0.454 | 0.247 | 0.366 |
| NC1(C(=O)N[C@@H](CCO)c2ccc(Cl)cc2)CCN(c2ncnc3[nH]ccc23)CC1 [Capivasertib] + CC(=O)c1c(C)c2cnc(Nc3ccc(N4CCNCC4)cn3)nc2n(C2CCCC2)c1=O [Palbociclib] (first compound max 10 µM, 7x7, partner max 10 µM) | 0.618 | 0.754 | 0.491 | 0.402 | 0.654 | 0.474 | 0.509 | 0.0563 | 0.798 | 0.298 | 0.599 | 0.294 | 0.203 | 0.426 | 0.86 | 0.965 | 0.605 | 0.523 | 0.265 | 1 |
| COc1cccc(OCCCN)c1-c1cc(Nc2cnc(C#N)cn2)n[nH]1 [Prexasertib] + O=C(c1cc(Cc2n[nH]c(=O)c3ccccc23)ccc1F)N1CCN(C(=O)C2CC2)CC1 [Olaparib] (first compound max 1 µM, 7x7, partner max 10 µM) | 0.97 | 0.579 | 0.945 | 0.801 | 0.607 | 0.735 | 1 | 0.891 | 0.613 | 0.978 | 0.576 | 0.742 | 0.548 | 0.256 | 0.705 | 0.679 | 1 | 0.224 | 0.371 | 1 |
